Patent US8017631B2, “Oxadiazole derivatives and their medical use” (Neurosearch A/S, priority 2005, dated 2011)

What was measured:
[1] = target: T1, human nicotinic acetylcholine receptor subtype α4β2 (Homo sapiens, UniProt P17787+P43681); assay: Characterization of hα4β2 positive allosteric modulators using FLIPR; assay type: cell-based
T1 construct: expressed in transfected cells; host or cells: human HEK cells
Experimental: The ability is determined relative to a maximal nicotine response (normally 100 μM). The activity is determined as a standard assay using a fluorometric method in a Fluorescent Image Plate Reader (FLIPR) as described below in more detail.
Full concentration/response curves are generated and EC50 values are calculated based on peak values. EC50 values (Effective Concentration) represent the concentration of the test substance, at which the nicotine-induced EC20-30 response is positively modulated such that the size of the response equals 50% of a maximal nicotine control response. The maximal positively modulated response is determined relative to the reference (nicotine) response.

T1 sequence (P43681 29-627 limits assumed): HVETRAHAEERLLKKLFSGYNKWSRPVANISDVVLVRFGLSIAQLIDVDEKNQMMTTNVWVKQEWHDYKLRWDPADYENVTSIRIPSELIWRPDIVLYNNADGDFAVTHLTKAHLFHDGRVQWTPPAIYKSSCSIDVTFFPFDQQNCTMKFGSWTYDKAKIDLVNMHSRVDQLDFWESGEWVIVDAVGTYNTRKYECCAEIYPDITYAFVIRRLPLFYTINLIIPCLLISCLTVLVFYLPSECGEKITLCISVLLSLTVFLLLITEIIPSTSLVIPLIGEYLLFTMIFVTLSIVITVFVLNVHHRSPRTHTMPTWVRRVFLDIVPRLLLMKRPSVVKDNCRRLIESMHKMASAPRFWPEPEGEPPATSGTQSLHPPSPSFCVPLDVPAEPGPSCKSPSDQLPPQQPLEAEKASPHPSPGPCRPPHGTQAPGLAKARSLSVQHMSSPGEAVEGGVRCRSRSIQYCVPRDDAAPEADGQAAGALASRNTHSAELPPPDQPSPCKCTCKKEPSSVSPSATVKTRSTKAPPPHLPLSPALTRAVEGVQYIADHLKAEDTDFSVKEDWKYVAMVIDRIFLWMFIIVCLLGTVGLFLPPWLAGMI
T1 sequence (P17787 26-502): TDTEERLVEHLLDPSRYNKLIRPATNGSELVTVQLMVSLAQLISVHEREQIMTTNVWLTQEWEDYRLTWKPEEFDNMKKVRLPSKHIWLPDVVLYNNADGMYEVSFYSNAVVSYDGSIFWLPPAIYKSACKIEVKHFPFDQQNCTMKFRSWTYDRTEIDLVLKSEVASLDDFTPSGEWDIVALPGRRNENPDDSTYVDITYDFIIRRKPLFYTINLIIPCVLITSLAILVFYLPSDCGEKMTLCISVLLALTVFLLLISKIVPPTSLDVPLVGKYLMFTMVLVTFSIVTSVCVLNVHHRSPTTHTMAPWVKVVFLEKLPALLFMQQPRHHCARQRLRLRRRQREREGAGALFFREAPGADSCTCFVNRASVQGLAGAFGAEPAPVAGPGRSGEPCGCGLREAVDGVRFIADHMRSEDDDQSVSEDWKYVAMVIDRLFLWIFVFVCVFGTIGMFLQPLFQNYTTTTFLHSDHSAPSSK

Row | Max. Response rel. to Nicotine ([1]; maximal positively modulated response relative to maximal nicotine response (normally 100 μM), HEK cells expressing hα4β2) | EC50 ([1]; positive modulation of sub-maximal nicotine (EC20-30) response, human HEK cells expressing hα4β2, peak values) | melting point | SMILES
1 | 97% | 6.8 µM |  | O=[N+]([O-])c1ccc(-c2nc(-c3cccnc3)no2)o1 [Compound 1, 3-(5-(5-Nitro-furan-2-yl)-[1,2,4]oxadiazol-3-yl)-pyridine]
2 |  |  | 141 to 144 °C | N#Cc1ccc(-c2nc(-c3cccnc3)no2)o1 [Compound 6.2, 5-(3-Pyridin-3-yl-[1,2,4]oxadiazol-5-yl)-furan-2-carbonitrile]
